# Patent US9549930B2, “Combined systemic and topical treatment of disordered and/or prodromal stage tissue” (priority 2013, dated 2017)
# Assays:
# Herpes Zoster (HZV) = assay: Case histories: systemic anti-viral drug alone for shingles; type: in vivo, human
# Description: A person with a clinical history of recurrent Herpes Zoster (HZV) (or in layman's terms, shingles) experienced a recurrent outbreak after a stressful week at work and a weekend in the sun following a trip to a tanning booth. (It is known that stress and UV-B can both trigger herpetic outbreaks.) This subject had their first episode with HZV about one year prior. They were diagnosed by their physician and given a prescription for Zovirax (acyclovir). They took the Zovirax, but experienced lesions lasting 3-4 weeks and experienced over 12 weeks of post-herpetic neuralgia. The previous episode included all the classic stages, including weeping, but only involved several very small lesions.
# A person was vacationing in California when they developed a red rash and subsequent lesions on their right buttock. They were diagnosed with herpes zoster (shingles) on day 2, after first signs and symptoms were noted, and was prescribed valacyclovir (Valtrex) per label.
# As […] to get to their home from California, they and their spouse elected to extend their time in California.
# The patient initially went to the doctor in the early stages of the infection when it was only on their leg. The doctor diagnosed the condition as shingles and prescribed the patient Valtrex. […] The bumps were smaller but they kept spreading. The doctor advised them to keep taking the Valtrex. Once the patient finished the first prescription of Valtrex, the doctor provided a second Valtrex prescription. […] The sores remained the same size although the sores on the patient's leg were much larger than on their lower trunk.
# A person had shingles on their neck and shoulders. Their sibling is a physician and diagnosed shingles and prescribed a nucleoside drug according to FDA approved labeling. The lesions had started to propagate down the affected dermatomes of the shoulder and neck. The lesions continued to progress despite anti-viral therapy.
# [1] = cited from earlier work
# [2] = cited from earlier work; remark: listed apart in the source
# [3] = Example 4, person, first HZV episode, Zovirax alone
SMILES,duration of post-herpetic neuralgia (Herpes Zoster (HZV); [3]),lesions lasting (Herpes Zoster (HZV); [3]),solubility in water [1],absorption from the gastrointestinal tract ([2]; after oral administration),"state on day 18 after first signs, after completed regimen (Herpes Zoster (HZV); Example 6, Valtrex regimen as prescribed)","effect on shingles initially (Herpes Zoster (HZV); Example 6, person, Valtrex per label from day 2)","state of sores after first prescription finished (Herpes Zoster (HZV); Example 8, Valtrex alone)","course of lesions shortly after first doses (Herpes Zoster (HZV); Example 8, person, Valtrex alone)","bioavailability ([2]; oral administration, shown in U.S. Pat. No. 4,957,924)"
"Nc1nc2c(ncn2COCCO)c(=O)[nH]1 [Aciclovir, 9-(2-hydroxyethoxymethyl)guanine]",over 12 weeks,3-4 weeks,poorly soluble in water,poorly absorbed,–,–,–,–,–
CC(C)[C@H](N)C(=O)OCCOCn1cnc2c(=O)[nH]c(N)nc21 [Valtrex],–,–,–,–,still had open herpetic lesions,little noticeable effect initially,still open and large,the lesions spread up the patient's leg and to their lower trunk,improved bioavailability
